“And” between values parts separate entries of the source, which are not always exact repeats. Equal entries are not always repeated. Inconclusive results and toxic doses are left out. The calls were made as follows: active = survival T/C of 150% or more; inactive = T/C below 125% in these data.
Tested on: CD2F1 mice, L1210 leukemia ip, survival T/C
Test: NCI In Vivo Anticancer Drug Screen. Data for tumor model L1210 Leukemia (intraperitoneal) in CD2F1 (CDF1) mice
Details: higher = longer survival
How it was run: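 In this screen, transplantable tumors were grown in mice given either the compound or its vehicle. Results were expressed as the treated measurement relative to the control measurement.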

[1] = endpoint: mean survival time, dose: 25.0 mg/kg/injection, schedule: Q01DX009 (ip), vehicle: saline with Tween-80
[2] = endpoint: mean survival time, dose: 100.0 mg/kg/injection, schedule: Q01DX001 (ip), vehicle: saline
[3] = endpoint: mean survival time, dose: 100.0 mg/kg/injection, schedule: Q01DX009 (ip), vehicle: saline with Tween-80
[4] = endpoint: mean survival time, dose: 100.0 mg/kg/injection, schedule: Q04DX003 (ip), vehicle: saline with Tween-80
[5] = endpoint: mean survival time, dose: 200.0 mg/kg/injection, schedule: Q01DX009 (ip), vehicle: saline with Tween-80
[6] = endpoint: mean survival time, dose: 200.0 mg/kg/injection, schedule: Q04DX003 (ip), vehicle: saline with Tween-80
[7] = endpoint: mean survival time, dose: 400.0 mg/kg/injection, schedule: Q01DX009 (ip), vehicle: saline with Tween-80
[8] = endpoint: mean survival time, dose: 12.5 mg/kg/injection, schedule: Q01DX009 (ip), vehicle: saline with Tween-80
[9] = endpoint: mean survival time, dose: 50.0 mg/kg/injection, schedule: Q01DX009 (ip), vehicle: saline with Tween-80

Measured: T/C

O/N=C/c1ccccc1
inactive: endpoint: mean survival time, dose: 11.0 mg/kg/injection, schedule: Q01DX009 (ip), vehicle: saline with Tween-80 108 % of control | endpoint: mean survival time, dose: 16.5 mg/kg/injection, schedule: Q01DX009 (ip), vehicle: saline with Tween-80 94 % of control | endpoint: mean survival time, dose: 25.0 mg/kg/injection, schedule: Q01DX001 (ip), vehicle: saline 97 % of control | [1] 97 % of control | endpoint: mean survival time, dose: 37.5 mg/kg/injection, schedule: Q01DX009 (ip), vehicle: saline with Tween-80 95 % of control | endpoint: mean survival time, dose: 50.0 mg/kg/injection, schedule: Q01DX001 (ip), vehicle: saline 97 % of control | endpoint: mean survival time, dose: 100.0 mg/kg/injection, schedule: Q01DX001 (ip), vehicle: saline with Tween-80 97 % of control | [2] 101 % of control

Cc1c2c(cc3c1[nH]c1ccccc13)C(c1ccc(Cl)cc1)=NCC2
inactive: [3] 101 % of control | [4] 101 % of control | [5] 98 % of control | [6] 89 % of control | [7] 106 % of control | endpoint: mean survival time, dose: 400.0 mg/kg/injection, schedule: Q04DX003 (ip), vehicle: saline with Tween-80 88 % of control

COc1ccc(Cc2cncc3cc(O)c(OC)cc23)cc1O
inactive: [2] 102 % of control | endpoint: mean survival time, dose: 200.0 mg/kg/injection, schedule: Q01DX001 (ip), vehicle: saline 96 % of control | endpoint: mean survival time, dose: 400.0 mg/kg/injection, schedule: Q01DX001 (ip), vehicle: saline 96 % of control

CC(C)C(C)/C=C/CC(C)C1CCC2C1(C)CCCC21C2CC3=C(CC(OC(=O)NC(N)=O)CC3)C21 (stereo not given)
inactive: [3] 95 % of control | [5] 104 % of control | [7] 87 % of control

CC(C#N)(C#N)N=Nc1ccc(Cl)cc1Cl
inactive: [8] 96 % of control and 102 % of control | [1] 100 % of control and 104 % of control | [9] 98 % of control and 107 % of control | [3] 101 % of control and 107 % of control | [5] 101 % of control and 111 % of control | [7] 113 % of control and 102 % of control

O=C(O)CCCCSc1ncnc2nc[nH]c12
inactive: [3] 90 % of control | [5] 95 % of control | [7] 102 % of control

C=C(C)CSC#N
inactive: endpoint: mean survival time, dose: 25.0 mg/kg/injection, schedule: Q04DX003 (ip), vehicle: saline with Tween-80 97 % of control | endpoint: mean survival time, dose: 50.0 mg/kg/injection, schedule: Q04DX003 (ip), vehicle: saline with Tween-80 100 % of control | [4] 100 % of control and 107 % of control

COc1cc(C(O)C(Cl)(Cl)Cl)ccc1O (stereo not given)
inactive: endpoint: mean survival time, dose: 100.0 mg/kg/injection, schedule: Q01DX009 (ip), vehicle: other 94 % of control | endpoint: mean survival time, dose: 200.0 mg/kg/injection, schedule: Q01DX009 (ip), vehicle: other 105 % of control | endpoint: mean survival time, dose: 400.0 mg/kg/injection, schedule: Q01DX009 (ip), vehicle: other 94 % of control

O=C1C=C(C2OC(CO)C(O)C2O)C(=O)N1 (stereo not given)
inactive: endpoint: mean survival time, dose: 5.0 mg/kg/injection, schedule: Q01DX009 (ip), vehicle: saline with Tween-80 106 % of control | endpoint: mean survival time, dose: 10.0 mg/kg/injection, schedule: Q01DX009 (ip), vehicle: saline with Tween-80 111 % of control | endpoint: mean survival time, dose: 20.0 mg/kg/injection, schedule: Q01DX009 (ip), vehicle: saline with Tween-80 111 % of control

NC(=O)c1csc(CSCCO)n1
inactive: endpoint: median survival time, dose: 41.75 mg/kg/injection, schedule: Q01DX005 (ip), vehicle: saline 103 % of control | endpoint: median survival time, dose: 83.5 mg/kg/injection, schedule: Q01DX005 (ip), vehicle: saline 104 % of control | endpoint: median survival time, dose: 167.0 mg/kg/injection, schedule: Q01DX005 (ip), vehicle: saline 102 % of control | endpoint: median survival time, dose: 334.0 mg/kg/injection, schedule: Q01DX005 (ip), vehicle: saline 98 % of control

CN(C)N=Nc1cccc(NC(N)=O)c1
inactive: endpoint: mean survival time, dose: 19.75 mg/kg/injection, schedule: Q01DX009 (ip), vehicle: Klucel (hydroxypropylcellulose) (HPC) 114 % of control | endpoint: mean survival time, dose: 79.0 mg/kg/injection, schedule: Q01DX009 (ip), vehicle: Klucel (hydroxypropylcellulose) (HPC) 87 % of control

CCC(=O)/C(=C\c1ccccc1Cl)C(C)=O
inactive: [3] 100 % of control | [5] 97 % of control

O=c1nc(NCc2cccs2)ccn1C1OC(CO)C(O)C1O (stereo not given)
inactive: endpoint: median survival time, dose: 12.5 mg/kg/injection, schedule: Q01DX005 (ip), vehicle: water 104 % of control | endpoint: median survival time, dose: 25.0 mg/kg/injection, schedule: Q01DX005 (ip), vehicle: water 103 % of control | endpoint: median survival time, dose: 50.0 mg/kg/injection, schedule: Q01DX005 (ip), vehicle: water 103 % of control | endpoint: median survival time, dose: 100.0 mg/kg/injection, schedule: Q01DX005 (ip), vehicle: water 102 % of control | endpoint: median survival time, dose: 200.0 mg/kg/injection, schedule: Q01DX005 (ip), vehicle: water 102 % of control

C[CH2][Sn]([CH2]C)([O]S(C)(=O)=O)[O]S(C)(=O)=O
inactive: endpoint: mean survival time, dose: 0.78 mg/kg/injection, schedule: Q01DX009 (ip), vehicle: saline 101 % of control | endpoint: mean survival time, dose: 1.56 mg/kg/injection, schedule: Q01DX009 (ip), vehicle: saline 107 % of control | endpoint: mean survival time, dose: 3.12 mg/kg/injection, schedule: Q01DX009 (ip), vehicle: saline 107 % of control | endpoint: mean survival time, dose: 6.25 mg/kg/injection, schedule: Q01DX009 (ip), vehicle: saline 111 % of control | endpoint: mean survival time, dose: 12.5 mg/kg/injection, schedule: Q01DX009 (ip), vehicle: saline 114 % of control

O=C(O/N=C(\CN1CCCC1)c1ccc(Cl)cc1)c1ccccc1
inactive: endpoint: mean survival time, dose: 100.0 mg/kg/injection, schedule: Q01DX001 (ip), vehicle: Klucel (hydroxypropylcellulose) (HPC) 95 % of control | endpoint: mean survival time, dose: 200.0 mg/kg/injection, schedule: Q01DX001 (ip), vehicle: Klucel (hydroxypropylcellulose) (HPC) 95 % of control | endpoint: mean survival time, dose: 400.0 mg/kg/injection, schedule: Q01DX001 (ip), vehicle: Klucel (hydroxypropylcellulose) (HPC) 93 % of control

CC1(C)OCC(C2CCC3(C)C4=CCC5C(C)(C)C(O)CCC5(C)C4CCC23C)CC(O)C1O (stereo not given)
inactive: endpoint: mean survival time, dose: 2.5 mg/kg/injection, schedule: Q01DX009 (ip), vehicle: Klucel (hydroxypropylcellulose) (HPC) 101 % of control | endpoint: mean survival time, dose: 5.0 mg/kg/injection, schedule: Q01DX009 (ip), vehicle: Klucel (hydroxypropylcellulose) (HPC) 95 % of control | endpoint: mean survival time, dose: 10.0 mg/kg/injection, schedule: Q01DX009 (ip), vehicle: Klucel (hydroxypropylcellulose) (HPC) 97 % of control

COC1CC2C[CH]([Hg][Cl])C1C2 (stereo not given)
inactive: endpoint: mean survival time, dose: 0.75 mg/kg/injection, schedule: Q01DX009 (ip), vehicle: saline 106 % of control | endpoint: mean survival time, dose: 1.5 mg/kg/injection, schedule: Q01DX009 (ip), vehicle: saline 106 % of control | endpoint: mean survival time, dose: 3.0 mg/kg/injection, schedule: Q01DX009 (ip), vehicle: saline 103 % of control | endpoint: mean survival time, dose: 3.13 mg/kg/injection, schedule: Q01DX009 (ip), vehicle: saline with Tween-80 97 % of control | endpoint: mean survival time, dose: 6.25 mg/kg/injection, schedule: Q01DX009 (ip), vehicle: saline with Tween-80 103 % of control

CC[N+](CC)(CC)CC
inactive: endpoint: mean survival time, dose: 0.37 mg/kg/injection, schedule: Q01DX009 (ip), vehicle: saline with Tween-80 110 % of control | endpoint: mean survival time, dose: 0.75 mg/kg/injection, schedule: Q01DX009 (ip), vehicle: saline with Tween-80 96 % of control | endpoint: mean survival time, dose: 1.5 mg/kg/injection, schedule: Q01DX009 (ip), vehicle: saline with Tween-80 96 % of control | endpoint: mean survival time, dose: 3.0 mg/kg/injection, schedule: Q01DX009 (ip), vehicle: saline with Tween-80 100 % of control | endpoint: mean survival time, dose: 6.0 mg/kg/injection, schedule: Q01DX009 (ip), vehicle: saline with Tween-80 110 % of control | endpoint: mean survival time, dose: 6.25 mg/kg/injection, schedule: Q04DX003 (ip), vehicle: saline with Tween-80 100 % of control | endpoint: mean survival time, dose: 12.0 mg/kg/injection, schedule: Q01DX009 (ip), vehicle: saline with Tween-80 96 % of control | [8] 88 % of control | endpoint: mean survival time, dose: 12.5 mg/kg/injection, schedule: Q04DX003 (ip), vehicle: saline with Tween-80 100 % of control

Nc1ccc2cc(Cl)ccc2c1
inactive: [9] 103 % of control | [3] 105 % of control | [4] 95 % of control | [6] 95 % of control

— PubChem BioAssay AID256 (DTP/NCI, 2004)
